Here are results for 26 molecules from US8852554B2, “Radiolabelled PDE10 ligands” (Janssen Pharmaceutica NV, priority 2009, dated 2014).

Data set [1] deals with T1, Rat recombinant PDE10A (rPDE10A) (Rattus norvegicus, UniProt Q9QYJ6).
T1 construct: made in house; host or cells: Sf9 insect cells (baculovirus)
T1 sequence (Q9QYJ6 1-794): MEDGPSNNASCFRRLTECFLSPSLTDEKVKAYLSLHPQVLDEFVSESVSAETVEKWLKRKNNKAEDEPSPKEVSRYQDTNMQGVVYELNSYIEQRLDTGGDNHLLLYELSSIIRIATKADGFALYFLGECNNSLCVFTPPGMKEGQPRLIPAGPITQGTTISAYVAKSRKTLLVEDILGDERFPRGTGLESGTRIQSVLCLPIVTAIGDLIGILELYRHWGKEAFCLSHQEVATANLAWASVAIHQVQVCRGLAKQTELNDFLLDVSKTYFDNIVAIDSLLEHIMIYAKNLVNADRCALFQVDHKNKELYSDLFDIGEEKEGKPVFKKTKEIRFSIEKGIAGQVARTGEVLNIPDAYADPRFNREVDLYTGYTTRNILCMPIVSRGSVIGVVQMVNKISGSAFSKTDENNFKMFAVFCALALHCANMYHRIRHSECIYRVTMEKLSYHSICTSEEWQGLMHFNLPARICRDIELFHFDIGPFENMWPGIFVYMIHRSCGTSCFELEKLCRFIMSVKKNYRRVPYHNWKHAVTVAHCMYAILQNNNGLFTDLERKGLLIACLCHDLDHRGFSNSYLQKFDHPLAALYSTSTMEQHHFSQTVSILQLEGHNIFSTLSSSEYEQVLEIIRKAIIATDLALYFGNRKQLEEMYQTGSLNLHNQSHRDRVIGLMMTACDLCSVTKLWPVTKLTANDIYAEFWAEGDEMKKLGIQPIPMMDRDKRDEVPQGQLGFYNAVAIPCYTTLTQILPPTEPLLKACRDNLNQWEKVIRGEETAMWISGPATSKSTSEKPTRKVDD
In words: rat PDE10A2-cAMP inhibition, in vitro SPA assay. Format: biochemical. Particulars: 60 nM cAMP substrate. The procedure: Rat recombinant PDE10A (rPDE10A) was expressed in Sf9 cells using a recombinant rPDE10A baculovirus construct. Cells were harvested after 48 h of infection and the rPDE10A protein was purified by metal chelate chromatography on Ni-sepharose 6FF. Tested compounds were dissolved and diluted in 100% DMSO to a concentration 100 fold of the final concentration in the assay. Compound dilutions (0.4 μl) were added in 384 well plates to 20 μl of incubation buffer (50 mM Tris pH 7.8, 8.3 mM MgCl2, 1.7 mM EGTA). 10 μl of rPDE10A enzyme in incubation buffer was added and the reaction was started by addition of 10 μl substrate to a final concentration of 60 nM cAMP and 0.008 μCi 3H-cAMP. The reaction was incubated for 60 minutes at room temperature. […] After sedimentation of the beads during 30 minutes, the radioactivity was measured in a Perkin Elmer Topcount scintillation counter and results were expressed as cpm. For blanc values the enzyme was omitted from the reaction and replaced by incubation buffer. Control values were obtained by addition of a final concentration of 1% DMSO instead of compound.

Structures can show the parent of a compound that is named as a salt.

Broadly, the melting point is the temperature of the solid-liquid transition. On to `FCCn1cc(-c2ccncc2)c(-c2ccc(OCc3cccc(C4CC4)n3)cc2)n1` (as salt: succinate) [Compound B8, 2-Cyclopropyl-6-[[4-[1-(2-fluoroethyl)-4-(4-pyridinyl)-1H-pyrazol-3-yl]phenoxy]methyl]-pyridine.succinate], for which the melting point was 91.25 °C.

`COc1cccnc1COc1ccc(-c2nn(CCF)cc2-c2ccncc2)cc1` (as salt: succinate) [Compound B16, 2-[[4-[1-(2-fluoroethyl)-4-(4-pyridinyl)-1H-pyrazol-3-yl]phenoxy]methyl]-3-methoxy-pyridine.succinate]: the melting point came to 178.95 °C.

One may read the IC50 as the midpoint of a concentration-inhibition curve. `CCOc1cccc(COc2ccc(-c3nn(CCF)cc3-c3ccncc3)cc2)n1` [Compound B25, 2-ethoxy-6-[[4-[1-(2-fluoroethyl)-4-(4-pyridinyl)-1H-pyrazol-3-yl]phenoxy]methyl]-pyridine.succinate]: the 50% inhibitory concentration (IC50) in data set [1] is 20.9 nM. For the molecule `Cc1cnc(COc2ccc(-c3nn(CCF)cc3-c3ccncc3)cc2)c(C)c1C` [Compound B28, 2-[[4-[1-(2-fluoroethyl)-4-(4-pyridinyl)-1H-pyrazol-3-yl]phenoxy]methyl]-3,4,5-trimethyl-pyridine.succinate], the 50% inhibitory concentration (IC50) in data set [1] is 4.37 nM.

`Cc1cnc(COc2ccc(-c3nn(CCF)cc3-c3ccncc3)cc2)c(C)c1C` (as salt: succinate) [Compound B28, 2-[[4-[1-(2-fluoroethyl)-4-(4-pyridinyl)-1H-pyrazol-3-yl]phenoxy]methyl]-3,4,5-trimethyl-pyridine.succinate] gave a melting point of 197.08 °C. With `FCCOc1cccnc1COc1ccc(-c2nn(CCF)cc2-c2ccncc2)cc1` [Compound B17, 3-(2-fluoroethoxy)-2-[[4-[1-(2-fluoroethyl)-4-(4-pyridinyl)-1H-pyrazol-3-yl]phenoxy]methyl]pyridine.succinate], the IC50 in data set [1] is 3.8 nM. For the molecule `COc1ccc(COc2ccc(-c3nn(CCCF)cc3-c3ccncc3)cc2)nc1` (as salt: succinate) [Compound B14, 2-[[4-[1-(3-fluoropropyl)-4-(4-pyridinyl)-1H-pyrazol-3-yl]phenoxy]methyl]-5-methoxy-pyridine.0.5 succinate], the melting point amounted to 126.64 °C. Take `FCCOc1cccnc1COc1ccc(-c2nn(CC(F)(F)F)cc2-c2ccncc2)cc1` [Compound B10, 3-(2-fluoroethoxy)-2-[[4-[4-(4-pyridinyl)-1-(2,2,2-trifluoroethyl)-1H-pyrazol-3-yl]phenoxy]methyl]-pyridine.succinate]: in data set [1], the 50% inhibitory concentration (IC50) was 6.31 nM. For `CCOc1cccc(COc2ccc(-c3nn(CCF)cc3-c3ccncc3)cc2)n1` (as salt: succinate) [Compound B25, 2-ethoxy-6-[[4-[1-(2-fluoroethyl)-4-(4-pyridinyl)-1H-pyrazol-3-yl]phenoxy]methyl]-pyridine.succinate], the melting point stood at 119.65 °C. For the molecule `FCCCn1cc(-c2ccncc2)c(-c2ccc(OCc3ncccc3OCCF)cc2)n1` (as salt: succinate) [Compound B13, 3-(2-fluoroethoxy)-2-[[4-[1-(3-fluoropropyl)-4-(4-pyridinyl)-1H-pyrazol-3-yl]phenoxy]methyl]pyridine.succinate], the melting point was 118.38 °C.

On to `FCCOc1ccc(COc2ccc(-c3nn(CC(F)(F)F)cc3-c3ccncc3)cc2)nc1` [Compound B11, 5-(2-fluoroethoxy)-2-[[4-[4-(4-pyridinyl)-1-(2,2,2-trifluoroethyl)-1H-pyrazol-3-yl]phenoxy]methyl]-pyridine], for which the half-maximal inhibitory concentration (IC50) in data set [1] was 107 nM. Turning to `COc1cccc(COc2ccc(-c3nn(CCF)cc3-c3ccncc3)cc2)n1` (as salt: succinate) [Compound B24, 2-[[4-[1-(2-fluoroethyl)-4-(4-pyridinyl)-1H-pyrazol-3-yl]phenoxy]methyl]-6-methoxy-pyridine.succinate], the melting point was 113.25 °C. On the same count and under the same terms, the result for `FCCn1cc(-c2ccncc2)c(-c2ccc(OCc3cccc(Br)n3)cc2)n1` (as salt: succinate) [Compound B6, 2-bromo-6-[[4-[1-(2-fluoroethyl)-4-(4-pyridinyl)-1H-pyrazol-3-yl]phenoxy]methyl]-pyridine.0.75 succinate] reads 108.78 °C.

For `FCCn1cc(-c2ccncc2)c(-c2ccc(OCc3ncccc3F)cc2)n1` [Compound B18, 3-fluoro-2-[[4-[1-(2-fluoroethyl)-4-(4-pyridinyl)-1H-pyrazol-3-yl]phenoxy]methyl]-pyridine.1.2 succinate], in data set [1], the concentration for half-maximal inhibition (IC50) is 16.2 nM. Turning to `FCCn1cc(-c2ccncc2)c(-c2ccc(OCc3cccc(Br)n3)cc2)n1` [Compound B6, 2-bromo-6-[[4-[1-(2-fluoroethyl)-4-(4-pyridinyl)-1H-pyrazol-3-yl]phenoxy]methyl]-pyridine.0.75 succinate], the half-maximal inhibitory concentration (IC50) in data set [1] was 9.77 nM. In the case of `FCCn1cc(-c2ccncc2)c(-c2ccc(OCc3ccc(C4CC4)cn3)cc2)n1` [Compound B23, 5-cyclopropyl-2-[[4-[1-(2-fluoroethyl)-4-(4-pyridinyl)-1H-pyrazol-3-yl]phenoxy]methyl]-pyridine], the IC50 in data set [1] is 34.7 nM.

Take `FCCn1cc(-c2ccncc2)c(-c2ccc(OCc3cccc(C4CC4)n3)cc2)n1` [Compound B8, 2-Cyclopropyl-6-[[4-[1-(2-fluoroethyl)-4-(4-pyridinyl)-1H-pyrazol-3-yl]phenoxy]methyl]-pyridine.succinate]: the half-inhibitory concentration (IC50) in data set [1] was 33.1 nM. On to `FCCn1cc(-c2ccncc2)c(-c2ccc(OCc3cccc(C(F)(F)F)n3)cc2)n1` [Compound B7, 2-[[4-[1-(2-fluoroethyl)-4-(4-pyridinyl)-1H-pyrazol-3-yl]phenoxy]methyl]-6-(trifluoromethyl)-pyridine], for which, in data set [1], the IC50 is 110 nM. For `FCCCn1cc(-c2ccncc2)c(-c2ccc(OCc3ncccc3OCCF)cc2)n1` [Compound B13, 3-(2-fluoroethoxy)-2-[[4-[1-(3-fluoropropyl)-4-(4-pyridinyl)-1H-pyrazol-3-yl]phenoxy]methyl]pyridine.succinate], the IC50 in data set [1] was 13.8 nM. As a reminder, the pIC50 is the negative decadic logarithm of the IC50, by convention in mol/L. As for `Cc1cccc(COc2ccc(-c3nn(CCCF)cc3-c3ccncc3)cc2)n1` [Compound B2, 2-[[4-[1-(3-fluoropropyl)-4-(4-pyridinyl)-1H-pyrazol-3-yl]phenoxy]methyl]-6-methyl-pyridine.hydrochloride], the negative-log IC50 (pIC50) in data set [1] was 7.7. In the case of `N#Cc1ccc(COc2ccc(-c3nn(CCF)cc3-c3ccncc3)cc2)nc1` [Compound B21, 6-[[4-[1-(2-fluoroethyl)-4-(4-pyridinyl)-1H-pyrazol-3-yl]phenoxy]methyl]-3-pyridinecarbonitrile], in data set [1], the pIC50 was found to be 7.1. On to `COc1cccnc1COc1ccc(-c2nn(CCF)cc2-c2ccncc2)cc1` [Compound B16, 2-[[4-[1-(2-fluoroethyl)-4-(4-pyridinyl)-1H-pyrazol-3-yl]phenoxy]methyl]-3-methoxy-pyridine.succinate], for which the half-maximal inhibitory concentration (IC50) in data set [1] is 3.72 nM. On to `COc1ccc(COc2ccc(-c3nn(CCCF)cc3-c3ccncc3)cc2)nc1` [Compound B14, 2-[[4-[1-(3-fluoropropyl)-4-(4-pyridinyl)-1H-pyrazol-3-yl]phenoxy]methyl]-5-methoxy-pyridine.0.5 succinate], for which the IC50 in data set [1] was 14.5 nM. On to `Cc1cnc(COc2ccc(-c3nn(CCF)cc3-c3ccncc3)cc2)c(C)c1` [Compound B3, 2-[[4-[1-(2-fluoroethyl)-4-(4-pyridinyl)-1H-pyrazol-3-yl]phenoxy]methyl]-3,5-dimethyl-pyridine.succinate], for which, in data set [1], the IC50 is 1.62 nM. For `COc1cccc(COc2ccc(-c3nn(CCF)cc3-c3ccncc3)cc2)n1` [Compound B24, 2-[[4-[1-(2-fluoroethyl)-4-(4-pyridinyl)-1H-pyrazol-3-yl]phenoxy]methyl]-6-methoxy-pyridine.succinate], the concentration for half-maximal inhibition (IC50) in data set [1] was 2.95 nM.

Take `Cc1cccc(COc2ccc(-c3nn(CCF)cc3-c3ccncc3)cc2)n1` [Compound B1, 2-[[4-[1-(2-fluoroethyl)-4-(4-pyridinyl)-1H-pyrazol-3-yl]phenoxy]methyl]-6-methyl-pyridine.dihydrochloride]: in data set [1], the negative-log IC50 (pIC50) was 8.6.
